What is called IC50 is the concentration at which inhibition is half-maximal. As a reminder, the inhibition is the percentage by which the read-out fell short of the control.

The values below come from US6867211B2, “4-Pyridyl-and 2,4-pyrimidinyl-substituted pyrrole derivatives and their use in pharmacy” (Merckle GmbH, priority 2000, dated 2005).

Read-outs that look alike come from different tables or passages of the source.

The target in one experiment is T1, cyclooxygenase-1 (Homo sapiens, UniProt P23219).
T1 construct: endogenous in cells; host or cells: human platelets isolated on a discontinuous Percoll gradient
T1 sequence (P23219 24-599): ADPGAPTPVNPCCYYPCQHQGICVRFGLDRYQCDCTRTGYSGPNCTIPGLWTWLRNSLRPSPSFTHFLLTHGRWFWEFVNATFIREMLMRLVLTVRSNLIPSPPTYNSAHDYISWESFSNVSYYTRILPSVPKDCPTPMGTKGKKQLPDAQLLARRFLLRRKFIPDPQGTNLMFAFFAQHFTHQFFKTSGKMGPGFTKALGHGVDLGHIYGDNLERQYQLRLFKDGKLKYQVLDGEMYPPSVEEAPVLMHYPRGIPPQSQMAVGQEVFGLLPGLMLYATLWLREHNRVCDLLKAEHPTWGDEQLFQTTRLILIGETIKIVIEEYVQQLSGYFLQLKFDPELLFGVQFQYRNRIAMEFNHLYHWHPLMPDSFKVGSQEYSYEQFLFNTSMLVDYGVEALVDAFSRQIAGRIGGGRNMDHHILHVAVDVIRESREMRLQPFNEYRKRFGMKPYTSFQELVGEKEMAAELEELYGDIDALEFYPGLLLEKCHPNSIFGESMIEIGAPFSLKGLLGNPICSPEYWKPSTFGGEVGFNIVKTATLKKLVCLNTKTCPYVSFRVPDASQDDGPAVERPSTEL
Nature of the experiment: In vitro test system for determining the inhibition of cyclooxygenase-1 (PGE2 from human platelets, calcium ionophore, ELISA). The class given is cell-based. Particulars: for IC50: human platelets, read-out: COX-1 IC50. The procedure:
In vitro Test System for Determining the Inhibition of Cyclooxygenase-1
In this test system, the amount of prostaglandin E2 formed from human platelets after addition of calcium ionophore is determined by means of ELISA. In this process, the platelets are obtained after centrifugation on a discontinuous Percoll® gradient. The enzyme reaction and the determination of the metabolites formed is carried out in principle as in the determination of 5-lipoxygenase inhibition. Differences exist with respect to the incubation time. Furthermore, the addition of a thromboxane synthesis inhibitor is necessary (see Arch. Pharm. Pharm. Med. Chem. 330, 307-312 (1997)).
For orientation: ELISA stands for enzyme-linked immunosorbent assay.

Experiment [1] has as its target T2, COX2 (from sheep placenta) (Ovis aries, UniProt P79208).
T2 construct: COX2 (from sheep placenta) is preincubated at 4° C. with test substance for 10 min; from tissue; host or cells: sheep placenta
T2 sequence (P79208 17-603): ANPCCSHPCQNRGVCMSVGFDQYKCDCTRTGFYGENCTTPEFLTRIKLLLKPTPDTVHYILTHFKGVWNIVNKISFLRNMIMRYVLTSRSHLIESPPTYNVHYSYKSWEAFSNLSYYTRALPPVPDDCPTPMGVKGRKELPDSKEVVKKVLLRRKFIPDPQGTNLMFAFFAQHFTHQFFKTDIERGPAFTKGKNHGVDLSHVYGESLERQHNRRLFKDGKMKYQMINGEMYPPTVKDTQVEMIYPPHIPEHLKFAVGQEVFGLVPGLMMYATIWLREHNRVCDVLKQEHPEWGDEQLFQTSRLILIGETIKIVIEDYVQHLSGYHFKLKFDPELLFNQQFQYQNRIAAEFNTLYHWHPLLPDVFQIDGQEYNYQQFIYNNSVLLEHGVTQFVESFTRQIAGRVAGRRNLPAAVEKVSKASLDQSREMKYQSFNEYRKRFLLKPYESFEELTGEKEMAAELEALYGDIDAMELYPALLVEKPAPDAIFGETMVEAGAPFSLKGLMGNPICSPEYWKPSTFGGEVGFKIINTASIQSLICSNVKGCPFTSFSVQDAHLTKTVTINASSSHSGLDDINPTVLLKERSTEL
Put plainly: In vitro test system for determining the inhibition of cyclooxygenase-2 (COX2 from sheep placenta, PGE2 ELISA). Type of experiment: biochemical. The note with it: read-out: COX-2 IC50. The procedure:
In vitro Test System for Determining the Inhibition of Cyclooxygenase-2
COX2 (from sheep placenta) is preincubated at 4° C. with test substance for 10 min, then stimulated with arachidonic acid (5 μM) at 25° C. for 10 min. […] The determination is carried out at 3 dilutions (10^−7, 10^−6, 10^−5 M). The PGE2 concentrations are quantified by means of ELISA (see Mitchell J. A. et al., Proc. Nat. Acad. Sci. 90: 11693-11697 (1993)).

The target of another experiment is T3, 5-lipoxygenase (Homo sapiens, UniProt P09917).
T3 construct: Human granulocytes are used as a source of the 5-lipoxygenase; endogenous in cells; host or cells: human granulocytes isolated from heparinised blood on a Percoll gradient
T3 sequence (P09917 1-674): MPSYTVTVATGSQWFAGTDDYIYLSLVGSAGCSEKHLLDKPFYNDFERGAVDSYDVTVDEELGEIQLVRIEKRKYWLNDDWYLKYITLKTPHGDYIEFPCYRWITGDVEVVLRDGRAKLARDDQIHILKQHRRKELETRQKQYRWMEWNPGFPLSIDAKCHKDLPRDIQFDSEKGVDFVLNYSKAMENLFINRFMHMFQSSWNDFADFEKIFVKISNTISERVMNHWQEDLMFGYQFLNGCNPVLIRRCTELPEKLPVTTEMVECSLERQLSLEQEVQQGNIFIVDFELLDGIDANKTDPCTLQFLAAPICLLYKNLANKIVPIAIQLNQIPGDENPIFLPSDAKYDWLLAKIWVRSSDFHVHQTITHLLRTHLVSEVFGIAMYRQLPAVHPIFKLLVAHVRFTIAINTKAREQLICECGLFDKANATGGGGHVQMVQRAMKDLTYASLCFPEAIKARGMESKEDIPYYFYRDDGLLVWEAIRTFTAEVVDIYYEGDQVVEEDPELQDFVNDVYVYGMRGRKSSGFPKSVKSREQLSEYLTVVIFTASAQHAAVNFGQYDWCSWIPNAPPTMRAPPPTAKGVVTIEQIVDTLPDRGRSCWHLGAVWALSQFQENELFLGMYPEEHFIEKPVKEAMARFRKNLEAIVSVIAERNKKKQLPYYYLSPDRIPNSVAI
Nature of the experiment: In vitro test system for determining the inhibition of 5-lipoxygenase (LTB4 from human granulocytes, A 23187, ELISA). The class given is cell-based. Particulars: human granulocytes; read-out: 5-LO IC50. The procedure:
In vitro Test System for Determining the Inhibition of 5-lipoxygenase
Human granulocytes are used as a source of the 5-lipoxygenase. LTB4 (leukotriene B4) is formed from endogenous arachidonic acid by means of stimulation with calcium ionophore A 23187. The granulocytes are isolated and the enzyme reaction is carried out according to known processes (see Arch. Pharm. Pharm. Med. Chem. 330, 307-312 (1997)).
The blood, which is protected from clotting with heparin, is centrifuged on a discontinuous Percoll® gradient and the granulocyte layer is pipetted off. After lysis of the erythrocytes, the granulocytes are washed a number of times and then adjusted to a specific cell count. The enzyme reaction is then started with calcium ionophore A 23187 in the presence or absence of the test substance after addition of Ca2+. The synthesis of the leukotrienes is stopped after 1.5 minutes. The samples are centrifuged off and the supernatant is diluted. LTB4 is determined quantitatively by means of ELISA.

For experiment [2], the system named is TNFα. Nature of the experiment: In vitro test procedure using PBMCs, LPS-stimulated, TNFα by ELISA. Type of experiment: cell-based. The note with it: Homo sapiens, PBMC; for inhibition at 10 µM: at 10 μmol; for inhibition at 1 µM: at 1 μmol. On the procedure: (§1) In vitro Test Procedure Using PBMCs
(§2) The mononuclear cells (PBMCs) are isolated from human potassium-EDTA whole blood diluted 1:3 by means of density gradient centrifugation (Histopaque®-1.077). After 2 washing steps with DPBS buffer, the mononuclear cells are resuspended in macrophage-SFM medium and adjusted to a cell count of 1×10^6 cells/ml.
(§3) The PBMCs suspension (at 390 μl) is preincubated with test substance for 15 min at 37° C. in a CO2 incubator (5% CO2; 95% moisture-saturated air). The samples are subsequently stimulated for 4 hours with 1 μg/ml LPS (E.coli 026:B6) at 37° C. in a CO2 incubator (5% CO2, 95% moisture-saturated air). The reaction is ended by placing the samples on ice, addition of DPBS buffer and centrifugation (15880×g; 12 min). The supernatant is used for the quantification of IL-1β and TNFα by means of ELISA.

Experiment [3] deals with IL-1β. Put plainly: In vitro test procedure using PBMCs, LPS-stimulated, IL-1β by ELISA. The class given is cell-based. The note with it: Homo sapiens, PBMC; for inhibition at 10 µM / inhibition at 1 µM: 4 h, read-out: IL-1β percentage inhibition; for inhibition at 10 µM: at 10 μmol; for inhibition at 1 µM: at 1 μmol. The procedure: as §1, §2, §3
The subject of experiment [4] is TNFα. Put plainly: In vitro test procedure using human whole blood, LPS-stimulated, TNFα by ELISA. The note with it: Homo sapiens; whole-blood method. The class given is cell-based. The procedure:
(§4) In vitro Test Procedure Using Human Whole Blood
(§5) Human potassium-EDTA whole blood (at 400 μl) is preincubated with test substance for 15 min. at 37° C. in a CO2 incubator (5% CO2; 95% moisture-saturated air). The samples are then stimulated for 4 hours with 1 μg/ml of LPS (E. coli 026:B6) at 37° C. in a CO2 incubator (5% CO2; 95% moisture-saturated air). The reaction is ended by placing the samples on ice, addition of DPBS buffer and subsequent centrifugation (1000×g; 15 min). The plasma supernatant is used for the quantification of IL-1β and TNFα by means of ELISA.

Experiment [5] relates to IL-1β. Put plainly: In vitro test procedure using human whole blood, LPS-stimulated, IL-1β by ELISA. The class given is cell-based. Particulars: Homo sapiens; whole-blood method. The procedure:
as §4, §5

Experiment [6] addresses T2, COX2 (from sheep placenta). Put plainly: In vitro test system for determining the inhibition of cyclooxygenase-2 (COX2 from sheep placenta, PGE2 ELISA). The class given is biochemical. Particulars: for IC50: value in COX-2 column.
Setting [7] is: 4 h, read-out: TNFα percentage inhibition.
The mark [8] stands for this setting: at 10 μmol, cells marked 'PBMC:' / 'whole-blood method:'.

In the case of `Fc1ccc(-c2cc3n(c2-c2ccncc2)CCC3)cc1` [Example 22, 6-(4-Fluorophenyl)-5-(4-pyridyl)-2,3-dihydro-1H-pyrrolizine], the IC50 on cyclooxygenase-1 came out at 230 nM; in experiment [1], 1.5 µM; on 5-lipoxygenase, 670 nM. Moreover, the inhibition at 10 µM came out at 34% in the experiment with TNFα [2] (setting [7]) and 59% with IL-1β [3].
Consider `Cc1c(-c2ccncc2)c(-c2ccc(F)cc2)n2c1CCC2` [Example 4, 5-(4-Fluorophenyl)-7-methyl-6-(4-pyridyl)-2,3-dihydro-1H-pyrrolizine], for which the IC50 at cyclooxygenase-1 was 1900 nM; in experiment [1], 3.4 µM; at 5-lipoxygenase it was 2400 nM; with TNFα [2], 6 µM; in the experiment on TNFα [4], 41 µM; in the experiment with IL-1β [3], 5.7 µM. Also, the IC50 in the experiment on IL-1β [5] was determined as 59 µM.
For the compound `Fc1ccc(-c2c(-c3ccncc3)cc3n2CCCC3)cc1` [Example 18, 3-(4-Fluorophenyl)-2-(4-pyridyl)-5,6,7,8-tetrahydroindolizine], the COX-1 percentage inhibition at cyclooxygenase-1 (at 10 μmol) is given as 10/35%. Further, the IC50 in experiment [1] came out at 1.6 µM; on 5-lipoxygenase it was 3300 nM; in the experiment with TNFα [4] it was 37 µM; with IL-1β [3], 7.5 µM; with IL-1β [5], 36 µM. In addition, the inhibition at 0.1 µM in the experiment with TNFα [2] (4 h, at 0.1 μmol, read-out: TNFα percentage inhibition) is 16%. Further, the inhibition at 1 µM with TNFα [2] (setting [7]) was determined as 33%. Also, in the experiment on TNFα [2] (setting [7]), the inhibition at 10 µM stood at 65%.
For `CCOC(=O)c1c(-c2ccncc2)c(-c2ccc(F)cc2)n2c1SCC2` [Example 10A, Ethyl 5-(4-fluorophenyl)-6-(4-pyridyl)-2,3-dihydropyrrolo-[2,1-b]-thiazole-7-carboxylate], the IC50 is 3400 nM on cyclooxygenase-1; 6.1 µM in experiment [1]; 65 nM at 5-lipoxygenase; 10 µM in the experiment on TNFα [2]; 30 µM with TNFα [4]; greater than 100 µM in the experiment on IL-1β [3]. The compound also returned a concentration for half-maximal inhibition (IC50) with IL-1β [5] of 30 µM.
Take `OCc1c(-c2ccncc2)c(-c2ccc(F)cc2)n2c1CCC2` [Example 3, [3-(4-Fluorophenyl)-2-(4-pyridyl)-6,7-dihydro-5H-pyrrolizin-1-yl]methanol]: the IC50 amounted to 5.7 µM in experiment [1]; 3700 nM at 5-lipoxygenase; 4 µM with TNFα [2]; 28 µM in the experiment with TNFα [4]; 5 µM with IL-1β [3]; 22 µM with IL-1β [5].
Consider `CCOC(=O)c1c(-c2ccc(F)cc2)c(-c2ccncc2)n2c1CCC2` [Example 19A, Ethyl 2-(4-fluorophenyl)-3-(4-pyridyl)-6,7-dihydro-5H-pyrrolizine-1-carboxylate], for which the figures for the IC50 (on cyclooxygenase-1; in experiment [1]; on 5-lipoxygenase) were 2900 nM, 5.5 µM and 2050 nM, respectively. The inhibition at 1 µM in the experiment with TNFα [2] (setting [7]) and in the experiment on IL-1β [3] was 0% in each case. For the same compound, the inhibition at 10 µM with TNFα [2] (setting [7]) was 60%; in the experiment with IL-1β [3], 21%.
For the compound `Cc1c(-c2ccc(F)cc2)c(-c2ccncc2)n2c1CCC2` [Example 21, 6-(4-Fluorophenyl)-7-methyl-5-(4-pyridyl)-2,3-dihydro-1H-pyrrolizine], the concentration for half-maximal inhibition (IC50) on cyclooxygenase-1 stood at 130 nM; in the experiment on TNFα [2] it was 26 µM; in the experiment on IL-1β [3], 5.6 µM; with IL-1β [5], 37 µM; in experiment [6] (cell marked 'PBMC:'), 0.34 µM; in experiment [6] (cell marked 'whole-blood method:') it was 6 µM. For the same compound, the COX-2 percentage inhibition in experiment [6] (setting [8]) came to 33%.
With `CC1(C)CSc2c(-c3ccncc3)c(-c3ccc(F)cc3)cn2C1` [Example 23, 7-(4-Fluorophenyl)-3,3-dimethyl-8-pyridin-4-yl-3,4-dihydro-2H-pyrrolo[2,1-b][1,3]thiazine], the COX-1 percentage inhibition came out at 0% at cyclooxygenase-1 (at 1.0 μmol) and 83% on cyclooxygenase-1 (at 10 μmol). Also, the half-maximal inhibitory concentration (IC50) on cyclooxygenase-1 was determined as 3500 nM; at 5-lipoxygenase it was 50 nM; in experiment [6] (cell marked 'PBMC:') it was 4 µM. In addition, the inhibition at 1 µM came to 0% in the experiment on TNFα [2] (setting [7]) and 19% in the experiment on IL-1β [3]. The inhibition at 10 µM in the experiment with TNFα [2] (setting [7]) was 79%. Also, the COX-2 percentage inhibition in experiment [6] (at 1 μmol, cell marked 'PBMC:') was found to be 10%; in experiment [6] (setting [8]), 50%.
